{"source": "patent US9649313B2", "about": "“Use of ITK inhibitors for the treatment of cancer” (The University of North Carolina at Chapel Hill, priority 2012, dated 2017)", "test_in_all_cases": "cell-free kinase assay", "type_in_all_cases": "biochemical", "key": {"PKACα": {"target": "T1, PKACα (Homo sapiens, UniProt P17612)", "T1 construct": "purchased Carna Biosciences", "settings": "single inhibitor concentration", "description": "(§1) We investigated the potency and selectivity of BI 10N against 56 kinases using a cell-free assay (Table 8A).\n(§2) The selectivity of this inhibitor was investigated by testing the potency of the inhibitor at two concentrations with 53 kinases by Carna Biosciences (MA) (Table 2)."}, "AurA": {"target": "T2, AurA (Homo sapiens, UniProt O14965)", "T2 construct": "purchased Carna Biosciences", "settings": "single inhibitor concentration", "description": "as §1, §2"}, "EGFR": {"target": "T3, EGFR (Homo sapiens, UniProt P00533)", "T3 construct": "purchased Carna Biosciences", "settings": "single inhibitor concentration", "description": "as §1, §2"}, "SYK": {"target": "T4, SYK (Homo sapiens, UniProt P43405)", "T4 construct": "purchased Carna Biosciences", "settings": "single inhibitor concentration", "description": "as §1, §2"}, "HGK": {"target": "T5, HGK (Homo sapiens, UniProt O95819)", "T5 construct": "purchased Carna Biosciences", "T5 sequence (O95819 whole entry)": "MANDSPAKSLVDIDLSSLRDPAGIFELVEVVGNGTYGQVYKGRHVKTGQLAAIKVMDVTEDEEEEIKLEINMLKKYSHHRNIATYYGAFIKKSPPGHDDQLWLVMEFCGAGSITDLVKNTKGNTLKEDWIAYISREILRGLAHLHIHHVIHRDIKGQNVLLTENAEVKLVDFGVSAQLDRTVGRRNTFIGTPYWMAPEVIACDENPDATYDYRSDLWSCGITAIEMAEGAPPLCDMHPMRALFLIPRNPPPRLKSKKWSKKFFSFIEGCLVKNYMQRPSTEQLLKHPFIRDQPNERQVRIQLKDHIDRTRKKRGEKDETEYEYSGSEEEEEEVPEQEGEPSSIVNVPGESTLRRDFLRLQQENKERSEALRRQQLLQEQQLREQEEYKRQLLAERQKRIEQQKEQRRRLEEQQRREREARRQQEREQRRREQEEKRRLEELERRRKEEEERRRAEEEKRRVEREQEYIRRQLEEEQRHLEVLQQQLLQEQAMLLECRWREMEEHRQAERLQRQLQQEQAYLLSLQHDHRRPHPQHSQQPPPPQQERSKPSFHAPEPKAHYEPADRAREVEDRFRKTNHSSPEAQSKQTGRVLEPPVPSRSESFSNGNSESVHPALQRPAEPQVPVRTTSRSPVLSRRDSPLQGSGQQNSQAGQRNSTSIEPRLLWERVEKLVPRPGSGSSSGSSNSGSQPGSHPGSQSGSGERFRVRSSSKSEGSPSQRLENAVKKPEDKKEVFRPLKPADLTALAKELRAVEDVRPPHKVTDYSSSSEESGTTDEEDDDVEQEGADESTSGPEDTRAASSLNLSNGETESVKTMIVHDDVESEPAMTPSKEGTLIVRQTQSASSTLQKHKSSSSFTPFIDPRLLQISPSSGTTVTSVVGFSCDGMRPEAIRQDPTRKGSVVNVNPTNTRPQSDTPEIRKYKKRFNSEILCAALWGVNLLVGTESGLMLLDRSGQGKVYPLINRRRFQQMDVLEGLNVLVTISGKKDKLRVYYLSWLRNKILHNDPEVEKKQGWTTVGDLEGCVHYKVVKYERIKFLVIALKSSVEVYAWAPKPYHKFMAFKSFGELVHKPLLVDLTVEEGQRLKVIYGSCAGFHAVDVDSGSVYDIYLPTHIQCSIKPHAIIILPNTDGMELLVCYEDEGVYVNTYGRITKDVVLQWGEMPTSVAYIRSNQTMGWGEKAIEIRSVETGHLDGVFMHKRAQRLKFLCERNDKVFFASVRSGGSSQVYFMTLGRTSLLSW", "description": "as §1, §2"}, "p70S6K": {"target": "T6, p70S6K (Homo sapiens, UniProt P23443)", "T6 construct": "purchased Carna Biosciences", "settings": "single inhibitor concentration", "description": "as §1, §2"}, "GSK3β": {"target": "T7, GSK3β (Homo sapiens, UniProt P49841)", "T7 construct": "purchased Carna Biosciences", "settings": "single inhibitor concentration", "description": "as §1, §2"}, "SRC": {"target": "T8, SRC (Homo sapiens, UniProt P12931)", "T8 construct": "purchased Carna Biosciences", "T8 sequence (P12931 whole entry)": "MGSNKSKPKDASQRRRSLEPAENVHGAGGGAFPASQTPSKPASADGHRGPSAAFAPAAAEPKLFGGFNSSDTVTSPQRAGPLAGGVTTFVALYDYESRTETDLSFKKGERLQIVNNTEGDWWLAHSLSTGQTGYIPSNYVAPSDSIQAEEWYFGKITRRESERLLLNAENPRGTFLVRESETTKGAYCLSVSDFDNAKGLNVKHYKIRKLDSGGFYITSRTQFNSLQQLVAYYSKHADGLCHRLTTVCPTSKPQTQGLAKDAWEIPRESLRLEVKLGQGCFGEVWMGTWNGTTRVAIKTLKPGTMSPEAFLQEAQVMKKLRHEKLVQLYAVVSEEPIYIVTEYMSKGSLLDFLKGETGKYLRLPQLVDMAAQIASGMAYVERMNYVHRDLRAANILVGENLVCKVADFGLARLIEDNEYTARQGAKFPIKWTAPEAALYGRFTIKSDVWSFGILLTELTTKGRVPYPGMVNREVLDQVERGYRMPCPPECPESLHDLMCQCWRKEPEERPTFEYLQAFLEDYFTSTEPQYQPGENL", "description": "as §1, §2"}, "IRAK4": {"target": "T9, IRAK4 (Homo sapiens, UniProt Q9NWZ3)", "T9 construct": "purchased Carna Biosciences", "T9 sequence (Q9NWZ3 whole entry)": "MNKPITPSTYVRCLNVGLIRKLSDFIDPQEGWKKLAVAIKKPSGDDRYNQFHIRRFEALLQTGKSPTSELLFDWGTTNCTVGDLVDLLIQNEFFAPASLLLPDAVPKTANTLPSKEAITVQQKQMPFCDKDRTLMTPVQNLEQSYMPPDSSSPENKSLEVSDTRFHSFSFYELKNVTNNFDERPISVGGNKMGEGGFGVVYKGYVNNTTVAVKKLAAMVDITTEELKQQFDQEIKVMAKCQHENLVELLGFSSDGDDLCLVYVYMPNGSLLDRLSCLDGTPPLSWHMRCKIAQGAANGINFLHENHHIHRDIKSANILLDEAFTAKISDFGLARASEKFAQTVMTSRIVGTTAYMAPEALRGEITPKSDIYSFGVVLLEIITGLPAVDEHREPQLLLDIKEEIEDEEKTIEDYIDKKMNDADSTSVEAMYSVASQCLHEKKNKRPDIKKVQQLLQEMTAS", "description": "as §1, §2"}, "PKD2": {"target": "T10, PKD2 (Homo sapiens, UniProt Q9BZL6)", "T10 construct": "purchased Carna Biosciences", "settings": "single inhibitor concentration", "description": "as §1, §2"}, "SGK": {"target": "T11, SGK (Homo sapiens, UniProt O00141)", "T11 construct": "purchased Carna Biosciences", "settings": "single inhibitor concentration", "description": "as §1, §2"}, "CDK2/CycA2": {"target": "T12, CDK2/CycA2 (Homo sapiens, UniProt P24941)", "T12 construct": "purchased Carna Biosciences", "settings": "single inhibitor concentration", "description": "as §1, §2"}, "ROCK1": {"target": "T13, ROCK1 (Homo sapiens, UniProt Q13464)", "T13 construct": "purchased Carna Biosciences", "settings": "single inhibitor concentration", "description": "as §1, §2"}, "PDK1": {"target": "T14, PDK1 (Homo sapiens, UniProt O15530)", "T14 construct": "purchased Carna Biosciences", "T14 sequence (O15530 whole entry)": "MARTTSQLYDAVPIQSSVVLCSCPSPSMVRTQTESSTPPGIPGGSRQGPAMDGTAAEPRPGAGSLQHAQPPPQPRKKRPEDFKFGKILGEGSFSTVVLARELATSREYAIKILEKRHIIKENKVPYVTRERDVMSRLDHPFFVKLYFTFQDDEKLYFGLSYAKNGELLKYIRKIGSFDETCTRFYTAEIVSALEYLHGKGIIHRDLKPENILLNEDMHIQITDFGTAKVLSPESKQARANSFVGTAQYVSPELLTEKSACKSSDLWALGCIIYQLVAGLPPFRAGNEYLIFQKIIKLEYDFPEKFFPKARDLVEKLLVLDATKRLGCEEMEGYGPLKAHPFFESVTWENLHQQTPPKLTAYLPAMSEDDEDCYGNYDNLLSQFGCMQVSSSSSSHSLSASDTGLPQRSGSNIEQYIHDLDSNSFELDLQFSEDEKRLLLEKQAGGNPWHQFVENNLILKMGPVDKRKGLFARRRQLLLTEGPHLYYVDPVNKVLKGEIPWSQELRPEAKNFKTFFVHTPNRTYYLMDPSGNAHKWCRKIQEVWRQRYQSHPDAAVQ", "settings": "single inhibitor concentration", "description": "as §1, §2"}, "NEK2": {"target": "T15, NEK2 (Homo sapiens, UniProt P51955)", "T15 construct": "purchased Carna Biosciences", "settings": "single inhibitor concentration", "description": "as §1, §2"}, "IKKβ": {"target": "T16, IKKβ (Homo sapiens, UniProt O14920)", "T16 construct": "purchased Carna Biosciences", "settings": "single inhibitor concentration", "description": "as §1, §2"}, "YES": {"target": "T17, YES (Homo sapiens, UniProt P07947)", "T17 construct": "purchased Carna Biosciences", "T17 sequence (P07947 whole entry)": "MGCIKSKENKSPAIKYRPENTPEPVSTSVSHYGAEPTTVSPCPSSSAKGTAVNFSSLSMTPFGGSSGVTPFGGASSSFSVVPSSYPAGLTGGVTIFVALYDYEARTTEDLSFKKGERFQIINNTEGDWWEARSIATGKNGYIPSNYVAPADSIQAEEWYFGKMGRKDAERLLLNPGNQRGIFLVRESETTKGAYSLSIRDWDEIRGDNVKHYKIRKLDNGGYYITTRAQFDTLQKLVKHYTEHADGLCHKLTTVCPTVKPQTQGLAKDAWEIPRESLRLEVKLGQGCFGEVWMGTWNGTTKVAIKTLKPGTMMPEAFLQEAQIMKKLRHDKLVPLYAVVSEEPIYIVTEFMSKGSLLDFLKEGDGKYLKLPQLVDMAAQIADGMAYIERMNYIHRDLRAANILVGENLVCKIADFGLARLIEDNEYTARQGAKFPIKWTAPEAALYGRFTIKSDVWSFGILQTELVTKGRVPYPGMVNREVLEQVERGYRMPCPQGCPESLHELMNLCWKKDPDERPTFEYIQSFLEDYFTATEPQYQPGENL", "settings": "for pIC50: YES", "description": "as §1, §2"}, "JNK2": {"target": "T18, JNK2 (Homo sapiens, UniProt P45984)", "T18 construct": "purchased Carna Biosciences", "settings": "single inhibitor concentration", "description": "as §1, §2"}, "KDR": {"target": "T19, KDR (Homo sapiens, UniProt P35968)", "T19 construct": "purchased Carna Biosciences", "settings": "single inhibitor concentration", "description": "as §1, §2"}, "MET": {"target": "T20, MET (Homo sapiens, UniProt P08581)", "T20 construct": "purchased Carna Biosciences", "settings": "single inhibitor concentration", "description": "as §1, §2"}, "CaMK4": {"target": "T21, CaMK4 (Homo sapiens, UniProt Q16566)", "T21 construct": "purchased Carna Biosciences", "settings": "single inhibitor concentration", "description": "as §1, §2"}, "TYRO3": {"target": "T22, TYRO3 (Homo sapiens, UniProt Q06418)", "T22 construct": "purchased Carna Biosciences", "settings": "single inhibitor concentration", "description": "as §1, §2"}, "DYRK1B": {"target": "T23, DYRK1B (Homo sapiens, UniProt Q9Y463)", "T23 construct": "purchased Carna Biosciences", "T23 sequence (Q9Y463 whole entry)": "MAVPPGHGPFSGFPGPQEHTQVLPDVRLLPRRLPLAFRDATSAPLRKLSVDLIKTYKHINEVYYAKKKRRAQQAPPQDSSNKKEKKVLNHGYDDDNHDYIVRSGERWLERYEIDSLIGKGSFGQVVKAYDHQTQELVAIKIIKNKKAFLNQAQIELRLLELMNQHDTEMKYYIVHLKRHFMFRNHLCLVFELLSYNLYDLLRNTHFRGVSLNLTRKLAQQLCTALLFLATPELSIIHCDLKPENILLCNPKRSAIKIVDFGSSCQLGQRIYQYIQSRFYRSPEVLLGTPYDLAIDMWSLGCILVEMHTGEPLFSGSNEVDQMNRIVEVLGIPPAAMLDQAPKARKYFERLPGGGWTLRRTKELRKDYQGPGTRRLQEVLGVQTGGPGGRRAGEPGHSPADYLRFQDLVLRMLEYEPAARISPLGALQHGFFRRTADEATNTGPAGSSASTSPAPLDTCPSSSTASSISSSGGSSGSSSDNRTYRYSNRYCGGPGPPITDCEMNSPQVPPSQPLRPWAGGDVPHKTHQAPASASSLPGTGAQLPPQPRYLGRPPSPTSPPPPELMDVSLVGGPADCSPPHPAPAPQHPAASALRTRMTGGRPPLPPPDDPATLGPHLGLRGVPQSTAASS", "settings": "single inhibitor concentration", "description": "as §1, §2"}, "TIE2": {"target": "T24, TIE2 (Homo sapiens, UniProt Q02763)", "T24 construct": "purchased Carna Biosciences", "T24 sequence (Q02763 23-1124)": "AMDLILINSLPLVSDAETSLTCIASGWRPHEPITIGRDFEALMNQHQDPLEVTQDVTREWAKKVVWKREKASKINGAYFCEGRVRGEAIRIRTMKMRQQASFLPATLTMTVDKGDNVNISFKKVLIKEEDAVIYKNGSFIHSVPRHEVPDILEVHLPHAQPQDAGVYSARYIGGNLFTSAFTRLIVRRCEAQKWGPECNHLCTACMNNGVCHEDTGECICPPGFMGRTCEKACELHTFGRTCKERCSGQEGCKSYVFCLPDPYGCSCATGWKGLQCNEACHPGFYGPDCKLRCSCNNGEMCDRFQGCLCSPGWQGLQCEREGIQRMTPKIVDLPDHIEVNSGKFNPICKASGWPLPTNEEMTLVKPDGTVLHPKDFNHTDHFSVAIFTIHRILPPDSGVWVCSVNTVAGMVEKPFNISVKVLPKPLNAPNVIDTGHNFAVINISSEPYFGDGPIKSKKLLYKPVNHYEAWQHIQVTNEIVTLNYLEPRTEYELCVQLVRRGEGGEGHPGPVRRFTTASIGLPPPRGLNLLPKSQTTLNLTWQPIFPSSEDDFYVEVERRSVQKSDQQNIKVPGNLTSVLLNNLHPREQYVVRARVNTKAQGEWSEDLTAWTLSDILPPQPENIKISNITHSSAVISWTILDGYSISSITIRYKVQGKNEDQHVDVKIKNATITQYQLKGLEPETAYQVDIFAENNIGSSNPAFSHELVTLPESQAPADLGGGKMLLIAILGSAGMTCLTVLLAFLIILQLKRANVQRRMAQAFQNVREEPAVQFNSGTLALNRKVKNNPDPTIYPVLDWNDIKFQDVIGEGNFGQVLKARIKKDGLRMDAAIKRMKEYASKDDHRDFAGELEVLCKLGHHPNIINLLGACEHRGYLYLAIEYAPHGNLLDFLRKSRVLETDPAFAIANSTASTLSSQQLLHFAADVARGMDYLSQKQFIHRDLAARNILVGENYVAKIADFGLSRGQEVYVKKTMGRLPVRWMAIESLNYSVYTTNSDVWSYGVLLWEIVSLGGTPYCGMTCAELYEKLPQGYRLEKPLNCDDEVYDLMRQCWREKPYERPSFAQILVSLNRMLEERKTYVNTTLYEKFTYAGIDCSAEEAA", "settings": "single inhibitor concentration", "description": "as §1, §2"}, "LYNb": {"target": "T25, LYNb (Homo sapiens, UniProt P07948)", "T25 construct": "purchased Carna Biosciences", "settings": "ATP concentration at approximately the Km for ATP", "description": "as §1, §2"}, "EPHA2": {"target": "T26, EPHA2 (Homo sapiens, UniProt P29317)", "T26 construct": "purchased Carna Biosciences", "settings": "single inhibitor concentration", "description": "as §1, §2"}, "MAPKAPK2": {"target": "T27, MAPKAPK2 (Homo sapiens, UniProt P49137)", "T27 construct": "purchased Carna Biosciences", "settings": "single inhibitor concentration", "description": "as §1, §2"}, "ZAP70": {"target": "T28, ZAP70 (Homo sapiens, UniProt P43403)", "T28 construct": "purchased Carna Biosciences", "settings": "ATP concentration at approximately the Km for ATP", "description": "as §1, §2"}, "FGR": {"target": "T29, FGR (Homo sapiens, UniProt P09769)", "T29 construct": "purchased Carna Biosciences", "settings": "ATP concentration at approximately the Km for ATP", "description": "as §1, §2"}, "EPHB4": {"target": "T30, EPHB4 (Homo sapiens, UniProt P54760)", "T30 construct": "purchased Carna Biosciences", "settings": "single inhibitor concentration", "description": "as §1, §2"}, "ITK": {"target": "T31, ITK (Homo sapiens, UniProt Q08881)", "T31 construct": "purchased Carna Biosciences", "T31 sequence (Q08881 1-620)": "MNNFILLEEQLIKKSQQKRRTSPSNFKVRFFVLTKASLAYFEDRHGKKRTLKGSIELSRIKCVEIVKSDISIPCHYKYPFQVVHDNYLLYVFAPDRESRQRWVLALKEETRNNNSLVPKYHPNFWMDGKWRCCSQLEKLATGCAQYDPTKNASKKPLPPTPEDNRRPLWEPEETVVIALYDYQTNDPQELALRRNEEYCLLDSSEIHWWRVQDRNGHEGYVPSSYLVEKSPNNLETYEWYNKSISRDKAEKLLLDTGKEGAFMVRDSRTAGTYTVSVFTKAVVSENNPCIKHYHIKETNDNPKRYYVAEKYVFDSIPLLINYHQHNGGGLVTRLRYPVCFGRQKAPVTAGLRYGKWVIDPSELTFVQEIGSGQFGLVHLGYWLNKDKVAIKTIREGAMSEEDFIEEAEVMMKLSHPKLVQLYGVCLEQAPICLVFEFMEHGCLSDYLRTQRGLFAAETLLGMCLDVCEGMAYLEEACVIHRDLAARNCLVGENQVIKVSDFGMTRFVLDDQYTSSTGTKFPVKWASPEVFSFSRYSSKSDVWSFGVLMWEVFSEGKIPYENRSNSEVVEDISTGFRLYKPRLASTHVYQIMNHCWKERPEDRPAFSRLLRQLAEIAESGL", "description": "as §1, §2"}, "AMPKα1/β1/γ1": {"target": "T32, AMPKα1/β1/γ1 (Homo sapiens, UniProt Q13131)", "T32 construct": "purchased Carna Biosciences", "settings": "single inhibitor concentration", "description": "as §1, §2"}}, "note": "pIC50, pKi: −log10 of the molar value."}
{"compound": "CC(C)C(C)CNCc1ccc2c(c1)[nH]/c(=N\\C(=O)c1ccc(C3=CN=NC3)s1)n2CC(C)(C)O", "note": "(centres unmarked) [BI 10N]", "values": [{"measurement": "inhibition at 0.2 µM", "setting": "PKACα", "result": 2.5, "unit": "%"}, {"measurement": "inhibition at 0.2 µM", "setting": "AurA", "result": 15.9, "unit": "%"}, {"measurement": "inhibition at 0.2 µM", "setting": "EGFR", "result": 8.6, "unit": "%"}, {"measurement": "inhibition at 0.2 µM", "setting": "SYK", "result": 40.6, "unit": "%"}, {"measurement": "pIC50", "setting": "HGK; Table 2, by Carna Biosciences", "result": 7.92}, {"measurement": "inhibition at 0.2 µM", "setting": "HGK; single inhibitor concentration", "result": 100, "unit": "%"}, {"measurement": "inhibition at 0.2 µM", "setting": "p70S6K", "result": 7.6, "unit": "%"}, {"measurement": "inhibition at 0.2 µM", "setting": "GSK3β", "result": 31.5, "unit": "%"}, {"measurement": "pIC50", "setting": "SRC; Table 2, by Carna Biosciences", "result": 8.42}, {"measurement": "inhibition at 0.2 µM", "setting": "SRC; single inhibitor concentration", "result": 99.9, "unit": "%"}, {"measurement": "pIC50", "setting": "IRAK4; Table 2, by Carna Biosciences", "result": 8.50}, {"measurement": "inhibition at 0.2 µM", "setting": "IRAK4; single inhibitor concentration", "result": 105, "unit": "%"}, {"measurement": "inhibition at 0.2 µM", "setting": "PKD2", "result": 7, "unit": "%"}, {"measurement": "inhibition at 0.2 µM", "setting": "SGK", "result": 1.4, "unit": "%"}, {"measurement": "inhibition at 0.2 µM", "setting": "CDK2/CycA2", "result": 72.3, "unit": "%"}, {"measurement": "inhibition at 0.2 µM", "setting": "ROCK1", "result": 33, "unit": "%"}, {"measurement": "inhibition at 0.2 µM", "setting": "PDK1", "result": 1.5, "unit": "%"}, {"measurement": "inhibition at 0.2 µM", "setting": "NEK2", "result": 0.3, "unit": "%"}, {"measurement": "inhibition at 0.2 µM", "setting": "IKKβ", "result": -2.4, "unit": "%"}, {"measurement": "selectivity for ITK over YES", "setting": "YES", "result": "about 10 fold"}, {"measurement": "pIC50", "setting": "YES; 1 mM ATP, Km ATP 13 μM", "result": 8.23}, {"measurement": "pIC50", "setting": "YES; ATP concentration at approximately the Km for ATP", "result": 9.00}, {"measurement": "pIC50", "setting": "YES; Table 2, by Carna Biosciences", "result": 9.00}, {"measurement": "inhibition at 0.2 µM", "setting": "JNK2", "result": -0.1, "unit": "%"}, {"measurement": "inhibition at 0.2 µM", "setting": "KDR", "result": 79.3, "unit": "%"}, {"measurement": "inhibition at 0.2 µM", "setting": "MET", "result": 4.1, "unit": "%"}, {"measurement": "inhibition at 0.2 µM", "setting": "CaMK4", "result": -4.3, "unit": "%"}, {"measurement": "inhibition at 0.2 µM", "setting": "TYRO3", "result": 35.6, "unit": "%"}, {"measurement": "inhibition at 0.2 µM", "setting": "DYRK1B", "result": 79.6, "unit": "%"}, {"measurement": "inhibition at 0.2 µM", "setting": "TIE2", "result": 8.2, "unit": "%"}, {"measurement": "pIC50", "setting": "LYNb", "result": 7.37}, {"measurement": "inhibition at 0.2 µM", "setting": "EPHA2", "result": 7.8, "unit": "%"}, {"measurement": "inhibition at 0.2 µM", "setting": "MAPKAPK2", "result": -5.2, "unit": "%"}, {"measurement": "pIC50", "setting": "ZAP70", "result": 5.15}, {"measurement": "pIC50", "setting": "FGR", "result": 8.54}, {"measurement": "inhibition at 0.2 µM", "setting": "EPHB4", "result": 52.1, "unit": "%"}, {"measurement": "mode of inhibition", "setting": "ITK; ITK", "result": "time-dependent inhibitor"}, {"measurement": "pIC50", "setting": "ITK; ITK, 1 mM ATP, Km ATP 6.1 μM", "result": 8.84}, {"measurement": "pIC50", "setting": "ITK; ITK, ATP at approximately the Km for ATP, more potent than can be measured", "result": "> 9.30"}, {"measurement": "pIC50", "setting": "ITK; ITK, Table 2, by Carna Biosciences", "result": 9.31}, {"measurement": "Km", "setting": "ITK; ITK, calculated from IC50 at 1 mM ATP, read-out: Calculated Apparent Km for BI 10N Binding", "result": 0.00865, "unit": "nM"}, {"measurement": "inhibition at 0.2 µM", "setting": "ITK; ITK, single inhibitor concentration", "result": 107, "unit": "%"}, {"measurement": "pKi", "setting": "ITK; tight binding studies, read-out: K (affinity for ITK)", "result": 11.07}, {"measurement": "inhibition at 0.2 µM", "setting": "AMPKα1/β1/γ1", "result": 15.3, "unit": "%"}]}
